# From ChEMBL document CHEMBL5352508, “Discovery and Structure-Based Design of Inhibitors of the WD Repeat-Containing Protein 5 (WDR5)-MYC Interaction” (J Med Chem, 2023)
# Active and inactive are the calls of the source. The calls are words filed in the database; no cut-off is given here.
# Key:
# WDR5-MYC = WDR5-MYC (Homo sapiens, UniProt P61964); test: Inhibition of N-terminal his-tagged WDR5 (1 to 334 residues) (unknown origin)/Biotin tagged Myc (256-268 residues) (unknown origin) interaction measured after 1 hrs by HTRF assay; format: protein assay
# [1] = Microsomal stability in mouse liver microsome assessed as intrinsic clearance; format: ADME; settings: liver microsomes, read-out: CLH
# [2] = Apparent permeability of the compound in dog MDCKII-LE cells measured upto 1.5 hrs; format: ADME, cell-based, Canis lupus familiaris; settings: MDCK
# COR-L279 = test: Antiproliferative activity against human COR-L279 cells assessed as cell growth inhibition measured after 72 hrs by CellTier-Glo assay; format: functional
# Daudi = test: Antiproliferative activity against human Daudi cells assessed as cell growth inhibition measured after 72 hrs by CellTier-Glo assay; format: functional
# Ramos = test: Antiproliferative activity against human Ramos cells assessed as cell growth inhibition measured after 72 hrs by CellTier-Glo assay; format: functional
# NB-4 = test: Antiproliferative activity against human NB4 cells assessed as cell growth inhibition measured after 72 hrs by CellTier-Glo assay; format: functional
# HL-60 [3] = test: Antiproliferative activity against human HL-60 cells assessed as cell growth inhibition measured after 72 hrs by CellTier-Glo assay; format: functional
# [4] = target: Histone-lysine N-methyltransferase 2A/WDR5 (Homo sapiens) (UniProt P61964+Q03164); test: Inhibition of WDR5 (unknown origin)/MLL (unknown origin) interaction by NanoBiT assay; format: protein assay
# HL-60 [5] = test: Downregulation of RPL17 gene expression in human HL-60 cells at 10 uM measured after 24 hrs by RT-qPCR assay; format: functional, cell-based
# HL-60 [6] = test: Downregulation of RPL23 gene expression in human HL-60 cells at 10 uM measured after 24 hrs by RT-qPCR assay; format: functional, cell-based
# HL-60 [7] = test: Downregulation of RPL35 gene expression in human HL-60 cells at 10 uM measured after 24 hrs by RT-qPCR assay; format: functional, cell-based
# HL-60 [8] = test: Downregulation of RPL37A gene expression in human HL-60 cells at 10 uM measured after 24 hrs by RT-qPCR assay; format: functional, cell-based
# SHP77 = test: Antiproliferative activity against human SHP77 cells assessed as cell growth inhibition measured after 72 hrs by CellTier-Glo assay; format: functional
# NCI-H520 = test: Antiproliferative activity against human NCI-H520 cells assessed as cell growth inhibition measured after 72 hrs by CellTier-Glo assay; format: functional
# NCI-H1650 = test: Antiproliferative activity against human NCI-H1650 cells assessed as cell growth inhibition measured after 72 hrs by CellTier-Glo assay; format: functional
# HL-60 [9] = test: Effect on MCM4 mRNA expression in human HL-60 cells measured after 24 hrs by RT-qPCR assay; format: functional, cell-based
# HL-60 [10] = test: Effect on MCM10 mRNA expression in human HL-60 cells measured after 24 hrs by RT-qPCR assay; format: functional, cell-based
# HL-60 [11] = test: Effect on Cdc20 mRNA expression in human HL-60 cells measured after 24 hrs by RT-qPCR assay; format: functional, cell-based
# HL-60 [12] = test: Effect on AURKB mRNA expression in human HL-60 cells measured after 24 hrs by RT-qPCR assay; format: functional, cell-based
smiles,measurement,setting,value
Cc1cc(=O)c(C(=O)NCc2c(F)cc(-c3ccccc3)cc2F)nn1-c1ccccc1,IC50,WDR5-MYC,15.8 µM
CCCC[C@@H](Cc1c(F)cc(-c2cccc(S(=O)(=O)F)c2)cc1F)C(=O)Nc1nnn[nH]1,microsomal CLint,[1],150 µL/min/mg
same,Papp at 1.5 h,[2],0.96 ×10⁻⁶ cm/s
Cc1cc(=O)c(C(=O)NCc2c(F)cc(-c3cccc(C(=O)O)c3)cc2F)nn1-c1ccccc1,IC50,WDR5-MYC,2.48 µM
Cc1cc(=O)c(C(=O)NCc2c(F)cc(N3CC[C@@H](F)C3)cc2F)nn1-c1ccccc1,IC50,WDR5-MYC,0.78 µM
Cc1cc(=O)c(C(=O)NCc2c(F)cc(-c3cccc(C(C)O)c3)cc2F)nn1-c1ccccc1 (configuration not stated),IC50,WDR5-MYC,5.51 µM
Cc1cc(=O)c(C(=O)NCc2c(F)cc(N3CCOCC3)cc2F)nn1-c1ccccc1,IC50,WDR5-MYC,3.24 µM
Cc1cc(=O)c(C(=O)NCc2c(F)cc(N3CC[C@H](F)C3)cc2F)nn1-c1ccccc1,IC50,WDR5-MYC,1.2 µM
Cc1cc(=O)c(C(=O)NCc2c(F)cc(N3CCCC(C)(C)C3)cc2F)nn1-c1ccccc1,IC50,WDR5-MYC,2.46 µM
Cc1cc(=O)c(C(=O)NCc2c(F)cc(C3CCCOC3)cc2F)nn1-c1ccccc1 (configuration not stated),IC50,WDR5-MYC,3.83 µM
Cc1cc(=O)c(C(=O)NCc2c(F)cc(-c3cccnc3)cc2F)nn1-c1ccccc1,IC50,WDR5-MYC,4.45 µM
Cc1cc(=O)c(C(=O)NCc2c(F)cc(N3CC[C@@H](F)C3)cc2F)nn1-c1cccc(C(=O)O)c1,IC50,WDR5-MYC,1.23 µM
Cc1cc(=O)c(C(=O)NCc2c(F)cc(N3CCCC(F)(F)C3)cc2F)nn1-c1ccccc1,IC50,WDR5-MYC,0.82 µM
Cc1cc(=O)c(C(=O)NCc2c(F)cc(N3CC[C@@H](F)C3)cc2F)nn1-c1cccc(C(N)=O)c1,IC50,WDR5-MYC,1.93 µM
Cc1cc(=O)c(C(=O)N(C)Cc2c(F)cc(C3CCCOC3)cc2F)nn1-c1ccccc1 (configuration not stated),GI50,COR-L279,> 50 µM
same,GI50,Daudi,> 50 µM
same,GI50,Ramos,> 50 µM
same,GI50,NB-4,> 50 µM
same,GI50,HL-60 [3],> 50 µM
same,IC50,WDR5-MYC,43.4 µM
same,inhibition,[4],inactive
same,Activity,HL-60 [5],inactive
same,Activity,HL-60 [6],inactive
same,Activity,HL-60 [7],inactive
same,Activity,HL-60 [8],inactive
same,GI50,SHP77,> 50 µM
same,GI50,NCI-H520,> 50 µM
same,GI50,NCI-H1650,> 50 µM
same,Activity,HL-60 [9],inactive
same,Activity,HL-60 [10],inactive
same,Activity,HL-60 [11],inactive
same,Activity,HL-60 [12],inactive
